Test results from US6838237B2, “Antigenically reactive regions of the hepatitis a virus polyprotein” (The United States of America as represented by the …, priority 1996, dated 2005).
Several values for one entry are separate records, joined by “and”; a condition that tells them apart may be missing. Equal entries are not always repeated.

Key:
[1] = tested on: anti-HAV-positive sera; test: EIA for anti-HAV: synthetic peptides adsorbed to wells, reacted with anti-HAV-positive acute sera; assay type: binding, human; conditions: for Reactivity with acute sera (reactive/tested): experiment 1: sera 1:100, anti-human IgG-HRP, cutoff P/N 3.0; for Reactivity with acute sera (percent of sera reactive): experiment 1: sera 1:100, cutoff P/N 3.0; for P/N for acute sera (mean) / P/N for acute sera (range, in parentheses) / P/N for acute sera (individual values): experiment 1; for P/N for acute sera (mean) / P/N for acute sera (range, in parentheses): OD493 positive/negative ratio of reactive sera; for P/N for acute sera (individual values): single sera listed with semicolon
From the text: (§1) All anti-HAV-positive and anti-HAV-negative sera were randomly selected from a collection reposited at the Centers for Disease Control and Prevention, Atlanta, Ga. Serum specimens were collected from anti-HAV-positive patients with acute liver disease. Anti-HAV-negative serum specimens were collected from normal blood donors. All sera were initially tested by commercially available kit for the presence of anti-HAV activity (HAVAB and HAVAB-M, Abbott Laboratories, Abbott Park, Ill.)
(§2) Synthetic peptides (110 ml) at a concentration of 10 mg/ml in 0.1 M phosphate-buffered saline (PBS), pH 7.5, were adsorbed to microtiter wells (Immulon II, Dynatech Laboratories, Inc.) at room temperature for 12 h. Sera were diluted in PBS containing 0.1% Tween 20 and 10% normal goat serum (PBS-T) and 100 ml were added to each well, incubated for 60 min at 37E C, and washed with PBS containing Tween-20. […] Two different cutoffs were established for experiments 1 and 2. In experiment 1, the cutoff, expressed as a P/N ratio and equal to 3.0, was statistically established as the mean of negative controls plus at least 3.5 standard deviations (SD) above the mean, where P represents the optical density value at 493 nm (OD493) of anti-HAV-positive specimens and N represents the optical density value of negative controls. In experiment 2, a different cutoff was used to ensure statistical reliability and accurate interpretation of positive results. In this case, in addition to anti-HAV-negative sera, two irrelevant synthetic peptides were used as supplemental negative controls to determine the degree of nonspecific binding of anti-HAV sera to synthetic peptides. One cutoff, expressed as a P/N ratio and equal to 3.0, corresponded to the mean of negative serum controls plus at least 3.5 SD above the mean. A second cutoff was also expressed as a P/N ratio, where P represents the optical density value at 493 nm (OD493) for HAV peptides immunoreacting with anti-HAV-positive specimens and N represents the optical density value obtained with the irrelevant peptides. The second cutoff was equal 2.0 and corresponded to the mean of OD values obtained with the irrelevant peptides plus at least 3.5 SD above the mean. Synthetic peptides were considered immunoreactive with anti-HAV serum specimens only when both cutoffs were satisfied.

[2] = tested on: anti-HAV-negative sera; test: EIA for anti-HAV: synthetic peptides reacted with anti-HAV-negative sera; assay type: binding, human; conditions: experiment 1: sera 1:100, cutoff P/N 3.0
From the text: as §1, §2

Row | Sequence | Reactivity with acute sera (reactive/tested) [1] | Reactivity with acute sera (percent of sera reactive) [1] [%] | P/N for acute sera (mean) [1] | P/N for acute sera (range, in parentheses) [1] | Reactivity with negative sera (reactive/tested) [2] | P/N for acute sera (individual values) [1] | percent of (IgM) anti-HAV-positive sera immunoreactive with peptide [1] [%] | immunoreactivity with anti-HAV-positive sera (in words) [1]
1 | HTYARFGIEIQVQINPTPFQ [YK-1216] | 23/41 | 56.1 | 5.3 | (3.42-10.79) | 4/46 | – | – | –
2 | IKVIPVDPYFFQMTNTNPDQ [YK-1244] | 6/41 | 14.6 | 4.2 | (3.55-5.2) | 0/46 | – | – | –
3 | INNVNLYYVFSKIFGKSPVF [YK-1424] | 3/41 | 7.3 | 6.69 | (3.48-10.83) | 0/27 | – | – | –
4 | INPTPFQQGGLICAMVPGDQ [YK-1217] | 4/41 | 9.8 | 4.03 | (3.94-4.12) | 0/46 | – | – | –
5 | ITTIEDPVLAKKVPETFPEL [YK-1271] | 4/41 | 9.8 | 4.97 | (3.33-7.76) | 1/46 | – | – | –
6 | KCITALASICQMFCFWRGDL [YK-1247] | 9/46 | 19.6 | 3.96 | (3.06-4.49) | 0/48 | – | – | –
7 | KINLADRMLGLSGVQEIKEQ [YK-1331] | 13/48 | 27.1 | 5.71 | (3.71-10.3) | 0/51 | – | – | –
8 | KNDGTTVDLTVDQAWRGKGE [YK-1389] | 3/41 | 7.3 | 10.33 | (5.53-18.26) | 0/27 | – | – | –
9 | KNPHNDMLNVNLAKTNDAIK [YK-1363] | 5/41 | 12.2 | 5.96 | (5.31-6.33) | 0/41 | – | – | –
10 | KTMIRFGDVGLDLDFSAFDA [YK-1418] | 6/41 | 14.6 | 4.5 | (3.35-6.21) | 1/27 | – | – | –
11 | KVNFPHGMLDLEEIAANSKD [YK-1327] | 15/48 | 31.3 | 6.16 | (3.28-9.76) | 1/51 | – | – | –
12 | LAKTNDAIKDMSCVDLIMDG [YK-1364] | 4/41 | 9.8 | 4.9 | (3.5-6.18) | 1/41 | – | – | –
13 | LDENGLLLGVHPRLAQRILF [YK-1407] | 2/41 | 4.9 | – | – | 0/27 | 3.43 and 3.98 | – | –
14 | LGMTATSADKNVPQLKPVSE [YK-1429] | 5/41 | 12.2 | 10.25 | (4.92-27.38) | 0/27 | – | – | –
15 | LGSINQAMVTRCEPVVCYLY [YK-1347] | 13/48 | 27.1 | 4.16 | (3.18-6.2) | 2/51 | – | 27.1 | –
16 | LNMASLEEKGRHFSSPFIIA [YK-1357] | 4/48 | 8.3 | 4.49 | (4.06-4.85) | 1/51 | – | – | –

Row | Sequence | Reactivity with acute sera (reactive/tested) [1] | Reactivity with acute sera (percent of sera reactive) [1] [%] | P/N for acute sera (mean) [1] | P/N for acute sera (range, in parentheses) [1] | Reactivity with negative sera (reactive/tested) [2] | P/N for acute sera (individual values) [1] | percent of (IgM) anti-HAV-positive sera immunoreactive with peptide [1] [%] | immunoreactivity with anti-HAV-positive sera (in words) [1]
17 | LSFSCYLSVTEQSEFYFPRA [YK-1307] | 6/48 | 12.5 | 5.88 | (4.17-7.64) | 0/51 | – | – | –
18 | LYNEQFAVQGLLRYHTYARF [YK-1215] | 10/41 | 24.4 | 5.29 | (3.41-8.83) | 0/46 | – | – | not found immunoreactive
19 | MEEKATYVHKKNDGTTVDLT [YK-1388] | 4/41 | 9.8 | 4.29 | (3.99-4.7) | 0/27 | – | – | –
20 | MLSKYSLPIVEEPEDYKEAS [YK-1399] | 5/41 | 12.2 | 6.86 | (4.05-16.46) | 1/27 | – | – | –
21 | MSRIAAGDLESSVDDPRSEE [YK-1312] | 13/48 | 27.1 | 8.7 | (4.44-25.9) | 2/51 | – | – | –
22 | NIGTGTSAYTSLNVLARFTD [YK-1224] | 9/41 | 22.0 | 3.53 | (3.09-4.17) | 0/46 | – | – | –
23 | NILKDNQQKIEKAIEEADEF [YK-1341] | 3/48 | 6.3 | 5.23 | (3.44-8.26) | 1/51 | – | – | –
24 | NPSPKTVYVKEAIDRRLHFK [YK-1360] | 4/41 | 9.8 | 4.08 | (3.68-4.71) | 0/46 | – | – | –
25 | NRGKMDVSGVQAPVGAITTI [YK-1268] | 7/46 | 15.2 | 9.1 | (6.07-15.25) | 2/48 | – | – | –
26 | PLNSNAMLSTESMMSRIAAG [YK-1310] | 3/48 | 6.3 | – | – | 0/51 | 3.68 and 5.23 | – | –
27 | PQLKPVSELTFLKRSFNLVE [YK-1431] | 4/41 | 9.8 | 14.13 | (3.17-27.53) | 1/27 | – | – | –
28 | PYKELRLEVGKQRLKYAQEE [YK-1316] | 20/48 | 41.7 | 8.71 | (3.5-17.8) | 2/51 | – | – | –
29 | QFPFNASDSVGQQIKVIPVD [YK-1241] | 1/41 | 2.4 | 3.56 | – | 0/46 | – | – | Very weakly reactive
30 | QNVPDPQVGITTMKDLKGKA [YK-1266] | 14/46 | 30.4 | 8.25 | (3.27-18.30) | 0/48 | – | – | –
31 | QRLKYAQEELSNEVLPPPRK [YK-1317] | 55/66 | 83.3 | 19.35 | (3.47-125.8) | 1/66 | – | – | –
